The record followed here is patent publication US20250127904A1, “SIGLEC LIGANDS, CONJUGATES, AND METHODS OF USE THEREOF” (Osprey Biopharmaceuticals, Inc., priority 2023, published 2025).

The structures appear in SMILES notation. Some results are limits rather than exact numbers.

Experiment [1] addresses T1, biotinylated mouse siglec-2-Fc-Avi (Mus musculus, UniProt P35329).
T1 construct: made in house
T1 sequence (P35329 22-708 limits assumed): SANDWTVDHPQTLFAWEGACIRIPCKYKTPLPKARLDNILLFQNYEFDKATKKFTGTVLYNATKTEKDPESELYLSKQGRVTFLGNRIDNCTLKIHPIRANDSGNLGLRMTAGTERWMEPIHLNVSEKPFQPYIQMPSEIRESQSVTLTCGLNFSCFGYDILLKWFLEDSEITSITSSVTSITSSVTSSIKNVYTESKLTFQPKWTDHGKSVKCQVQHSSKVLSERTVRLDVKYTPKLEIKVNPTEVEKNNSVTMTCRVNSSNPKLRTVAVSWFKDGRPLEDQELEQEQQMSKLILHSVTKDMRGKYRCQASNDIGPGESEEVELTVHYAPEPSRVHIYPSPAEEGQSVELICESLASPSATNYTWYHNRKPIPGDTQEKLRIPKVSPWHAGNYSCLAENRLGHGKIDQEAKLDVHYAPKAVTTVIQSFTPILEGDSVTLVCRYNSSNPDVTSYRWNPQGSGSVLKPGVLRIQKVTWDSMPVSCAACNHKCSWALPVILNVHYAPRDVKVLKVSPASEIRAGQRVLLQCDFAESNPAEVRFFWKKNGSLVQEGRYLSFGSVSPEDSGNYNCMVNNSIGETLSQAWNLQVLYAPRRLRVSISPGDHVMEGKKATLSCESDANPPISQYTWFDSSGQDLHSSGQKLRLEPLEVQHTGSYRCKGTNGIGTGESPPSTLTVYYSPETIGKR
Put plainly: SPR binding to mouse siglec-2/CD22. Conditions: steady-state analysis, read-out: Mouse CD22 affinity. The procedure:
(§1) The following proteins were used for CD22 ligand binding: biotinylated human siglec-2/CD22 protein-His-Avitag (Acro Biosystems, Cat #SI2-H82E3), biotinylated mouse siglec-2-Fc-Avi (in-house production), and recombinant cynomolgus siglec-2/CD22 His-tag (R&D systems, Cat #9864-SL-050). Prior to immobilization, CD22 proteins were treated with SialoExo (Genovis, Cat #G1-SM1-020) for 4 hours at 37° C. to remove native sialic acid residues.
(§2) Capture of biotinylated CD22 constructs was performed using a Cytiva SA chip (BR100398) on a Biacore 8K instrument. Human siglec 2 was immobilized on channels 1-4 and mouse siglec 2 on channels 5-8 on the active flow cell (2) and the reference flow cell (1) was immobilized with biotinylated human FGFR2 Fc Avi, an unrelated protein, to account for any nonspecific binding. Human siglec 2 and Mouse siglec 2 were diluted in running buffer to 20 μg/mL and injected on the active flow cell (2) for 300 seconds at 5 μL/min, yielding about 3500 RU of captured constructs.
(§3) Binding experiments of siglec-ligand conjugated proteins or Siglec ligand compounds were performed on the surfaces prepared above in 10 mM HEPES, 150 mM NaCl, 0.05% Tween-20, pH 7.5, 1% DMSO as the running buffer. Compounds were serially diluted in running buffer from 50 μM to 97.6 nM and injected over both the reference and active flow cells for 90 seconds at 30 μL/min. The compounds were then allowed to dissociate from the surface for 120 seconds. No regeneration was required as the compounds completely dissociated from the surface after 30 seconds. Solvent correction was performed using 0.5, 1, 1.5, and 2% DMSO spike into running buffer without DMSO. Data was analyzed using steady-state analysis in Biacore Insight Evaluation Software, version 3.0.
(In general: In SPR one partner is held on a chip, and binding of the other changes the refractive index at the surface.)

Experiment [2] addresses T2, biotinylated human siglec-2/CD22 protein-His-Avitag (Homo sapiens, UniProt P20273).
T2 construct: purchased Acro Biosystems SI2-H82E3
T2 sequence (P20273 20-847): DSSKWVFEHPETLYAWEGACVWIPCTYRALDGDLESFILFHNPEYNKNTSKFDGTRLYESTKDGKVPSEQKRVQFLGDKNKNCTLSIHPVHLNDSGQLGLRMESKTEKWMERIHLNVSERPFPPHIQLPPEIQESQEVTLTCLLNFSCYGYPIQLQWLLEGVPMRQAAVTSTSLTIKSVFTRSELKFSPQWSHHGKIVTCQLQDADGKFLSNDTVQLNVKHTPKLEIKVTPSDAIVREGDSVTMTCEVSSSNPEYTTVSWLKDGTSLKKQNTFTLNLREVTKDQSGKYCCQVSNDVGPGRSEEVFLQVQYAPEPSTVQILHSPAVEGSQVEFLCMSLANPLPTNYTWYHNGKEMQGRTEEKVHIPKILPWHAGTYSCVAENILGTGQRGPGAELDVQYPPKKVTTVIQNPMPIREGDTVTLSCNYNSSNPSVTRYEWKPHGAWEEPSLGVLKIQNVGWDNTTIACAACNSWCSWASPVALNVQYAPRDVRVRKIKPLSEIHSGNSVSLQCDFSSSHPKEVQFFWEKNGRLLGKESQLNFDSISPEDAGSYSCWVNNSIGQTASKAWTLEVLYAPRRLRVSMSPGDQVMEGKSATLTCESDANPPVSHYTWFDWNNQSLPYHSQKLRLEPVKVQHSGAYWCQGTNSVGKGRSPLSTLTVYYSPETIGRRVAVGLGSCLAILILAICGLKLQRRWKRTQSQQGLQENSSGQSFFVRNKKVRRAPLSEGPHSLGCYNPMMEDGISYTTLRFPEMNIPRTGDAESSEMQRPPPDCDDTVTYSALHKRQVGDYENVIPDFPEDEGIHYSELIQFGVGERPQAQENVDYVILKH
Put plainly: SPR binding to human siglec-2/CD22. Conditions: steady-state analysis, read-out: Human CD22 affinity. The method, then:
as §1, §2, §3

The target of experiment [3] is recombinant cynomolgus siglec-2/CD22 His-tag (Macaca fascicularis, UniProt A0A2K5WCZ6). Put plainly: SPR binding to cynomolgus siglec-2/CD22. Conditions: steady-state analysis, read-out: Cyno CD22 affinity. The method, then:
as §1
Surface preparation for cyno CD22 protein consisted of amine coupling to Cytiva CM5 chip (Cytiva, Cat #BR100530) using the Cytiva amine coupling kit Type 2 (Cytiva, Cat #BR100633). Following the standard amine coupling protocols, EDC and NHS from the kit were mixed 1:1 and injected over flow cells 1 and 2. Cyno CD22 was then immobilized by injecting 10 μg/mL in Sodium Acetate, pH 5.5 onto flow cell (2) for 420 seconds at 10 uL/min, yielding approximately 2500 RU of captured protein. Any active carboxy groups were then capped with 1M Ethanolamine, pH 8.5 for 420 s on flow cells 1 and 2.
as §3

Chain of recombinant cynomolgus siglec-2/CD22 His-tag (A0A2K5WCZ6 entry or part of it): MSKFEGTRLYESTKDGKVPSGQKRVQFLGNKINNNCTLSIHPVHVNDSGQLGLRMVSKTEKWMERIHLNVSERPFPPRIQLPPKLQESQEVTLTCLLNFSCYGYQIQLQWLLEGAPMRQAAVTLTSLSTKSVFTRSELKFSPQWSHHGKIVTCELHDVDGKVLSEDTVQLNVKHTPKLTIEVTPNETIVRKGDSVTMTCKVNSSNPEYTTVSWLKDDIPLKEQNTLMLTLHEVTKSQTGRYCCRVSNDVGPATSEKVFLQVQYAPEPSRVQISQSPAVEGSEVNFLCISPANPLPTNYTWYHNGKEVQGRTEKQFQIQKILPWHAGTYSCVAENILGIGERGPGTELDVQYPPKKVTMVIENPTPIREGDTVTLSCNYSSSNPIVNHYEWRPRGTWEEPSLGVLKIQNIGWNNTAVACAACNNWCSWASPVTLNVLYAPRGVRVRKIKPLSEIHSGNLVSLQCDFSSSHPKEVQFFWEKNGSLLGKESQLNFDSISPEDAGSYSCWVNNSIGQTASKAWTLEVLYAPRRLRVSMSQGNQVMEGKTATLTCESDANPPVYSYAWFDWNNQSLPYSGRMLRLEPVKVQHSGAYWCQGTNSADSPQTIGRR

For `CCCNC(=O)CCOCCOCCOCCOCCn1cc(-c2ccc(CC(=O)NC[C@@H](O)[C@@H](O)[C@@H]3O[C@@](OCCCCCCn4cc(COCCOC)nn4)(C(=O)O)C[C@H](O)[C@H]3NC(=O)CO)cc2)nn1` [Compound 55, (2R,4S,5R,6R)-6-((1R,2R)-1,2-dihydroxy-3-(2-(4-(1-(15-oxo-3,6,9,12-tetraoxa-16-azanonadecyl)-1H-1,2,3-triazol-4-yl)phenyl)acetamido)propyl)-4-hydroxy-5-(2-hydroxyacetamido)-2-((6-(4-((2-methoxyethoxy)methyl)-1H-1,2,3-triazol-1-yl)hexyl)oxy)tetrahydro-2H-pyran-2-carboxylic acid], the Kd in experiment [1] was 1000 to 10000 nM; in experiment [2], below 1000 nM; in experiment [3], 1000 to 10000 nM.

For the molecule `CCCNC(=O)CCOCCOCCOCCOCCn1cc(-c2ccc(CC(=O)NC[C@@H](O)[C@@H](O)[C@@H]3O[C@@](OCCCCCCNc4c(NCCOC)c(=O)c4=O)(C(=O)O)C[C@H](O)[C@H]3NC(=O)CO)cc2)nn1` [Compound 53, (2R,4S,5R,6R)-6-((1R,2R)-1,2-dihydroxy-3-(2-(4-(1-(15-oxo-3,6,9,12-tetraoxa-16-azanonadecyl)-1H-1,2,3-triazol-4-yl)phenyl)acetamido)propyl)-4-hydroxy-5-(2-hydroxyacetamido)-2-((6-((2-((2-methoxyethyl)amino)-3,4-dioxocyclobut-1-en-1-yl)amino)hexyl)oxy)tetrahydro-2H-pyran-2-carboxylic acid], the figures for the Kd in experiment [1], in experiment [2] and in experiment [3] were 1000 to 10000 nM, below 1000 nM and below 1000 nM, respectively.

On to `C#CCOCCCCCCCc1ccc(CC(=O)NC[C@@H](O)[C@@H](O)[C@@H]2O[C@@](OCc3ccccc3)(C(=O)O)C[C@H](O)[C@H]2NC(=O)CO)cc1` [Compound 13, (2R,4S,5R,6R)-2-(benzyloxy)-6-((1R,2R)-1,2-dihydroxy-3-(2-(4-(7-(prop-2-yn-1-yloxy)heptyl)phenyl)acetamido)propyl)-4-hydroxy-5-(2-hydroxyacetamido)tetrahydro-2H-pyran-2-carboxylic acid], for which the Kd in experiment [1], in experiment [2] and in experiment [3] was 1000 to 10000 nM in each case.

As for `C#CCOCCOCCOCCC(=O)N[C@H]1[C@H]([C@H](O)[C@H](O)CNC(=O)Cc2ccc(Cl)cc2)O[C@@](OCc2ccccc2)(C(=O)O)C[C@@H]1O` [Compound 21, (2R,4S,5R,6R)-2-(benzyloxy)-6-((1R,2R)-3-(2-(4-chlorophenyl)acetamido)-1,2-dihydroxypropyl)-4-hydroxy-5-(3-(2-(2-(prop-2-yn-1-yloxy)ethoxy)ethoxy)propanamido)tetrahydro-2H-pyran-2-carboxylic acid], the Kd is above 10000 nM in experiment [1], 1000 to 10000 nM in experiment [2] and 1000 to 10000 nM in experiment [3].

Take `C#Cc1ccc(CC(=O)NC[C@@H](O)[C@@H](O)[C@@H]2O[C@@](OCCCCCCOC)(C(=O)O)C[C@H](O)[C@H]2NC(=O)CO)cc1` [Compound 11, (2R,4S,5R,6R)-6-((1R,2R)-3-(2-(4-ethynylphenyl)acetamido)-1,2-dihydroxypropyl)-4-hydroxy-5-(2-hydroxyacetamido)-2-((6-methoxyhexyl)oxy)tetrahydro-2H-pyran-2-carboxylic acid]: the Kd is 1000 to 10000 nM in experiment [1], below 1000 nM in experiment [2] and below 1000 nM in experiment [3].

Consider `C#Cc1ccc(CC(=O)NC[C@@H](O)[C@@H](O)[C@@H]2O[C@@](OCc3ccc(O)cc3)(C(=O)O)C[C@H](O)[C@H]2NC(=O)CO)cc1` [Compound 3, (2R,4S,5R,6R)-6-((1R,2R)-3-(2-(4-ethynylphenyl)acetamido)-1,2-dihydroxypropyl)-4-hydroxy-5-(2-hydroxyacetamido)-2-((4-hydroxybenzyl)oxy)tetrahydro-2H-pyran-2-carboxylic acid], for which the Kd is 1000 to 10000 nM in experiment [1], below 1000 nM in experiment [2] and below 1000 nM in experiment [3].

Take `CCCCCCO[C@]1(C(=O)O)C[C@H](O)[C@@H](NC(=O)CO)[C@H]([C@H](O)[C@H](O)CNC(=O)Cc2ccc(-c3cn(CCOCCOCCOCCC(=O)NCC)nn3)cc2)O1` [Compound 16, (2R,4S,5R,6R)-6-((1R,2R)-1,2-dihydroxy-3-(2-(4-(1-(12-oxo-3,6,9-trioxa-13-azapentadecyl)-1H-1,2,3-triazol-4-yl)phenyl)acetamido)propyl)-2-(hexyloxy)-4-hydroxy-5-(2-hydroxyacetamido)tetrahydro-2H-pyran-2-carboxylic acid]: the Kd in experiment [1], in experiment [2] and in experiment [3] was below 1000 nM in each case.

Consider `C#CCCCCCCCCOc1ccc(CC(=O)NC[C@@H](O)[C@@H](O)[C@@H]2O[C@@](OCc3ccccc3)(C(=O)O)C[C@H](O)[C@H]2NC(=O)CO)cc1` [Compound 7, (2R,4S,5R,6R)-2-(benzyloxy)-6-((1R,2R)-3-(2-(4-(dec-9-yn-1-yloxy)phenyl)acetamido)-1,2-dihydroxypropyl)-4-hydroxy-5-(2-hydroxyacetamido)tetrahydro-2H-pyran-2-carboxylic acid], for which the Kd in experiment [1], in experiment [2] and in experiment [3] was 1000 to 10000 nM each time.

`C#Cc1ccc(CC(=O)NC[C@@H](O)[C@@H](O)[C@@H]2O[C@@](OCCCCCCn3cc(COCCOC)nn3)(C(=O)O)C[C@H](O)[C@H]2NC(=O)CO)cc1` [Compound 28, (2R,4S,5R,6R)-6-((1R,2R)-3-(2-(4-ethynylphenyl)acetamido)-1,2-dihydroxypropyl)-4-hydroxy-5-(2-hydroxyacetamido)-2-((6-(4-((2-methoxyethoxy)methyl)-1H-1,2,3-triazol-1-yl)hexyl)oxy)tetrahydro-2H-pyran-2-carboxylic acid]: the Kd in experiment [1], in experiment [2] and in experiment [3] was below 1000 nM throughout.
